We go through one compound from patent publication US20260146044A1, “AROMATIC COMPOUND, PHARMACEUTICAL COMPOSITION CONTAINING SAME, AND USE THEREOF” (Increland, priority 2023, published 2026).

Broadly, the IC50 is the concentration that gives 50% inhibition. The low end stands for greater potency, the high end for weaker potency.

For the test, the system named is secretion levels of IL-6 in PBMC cells. The experiment in a line: Inhibition of R848-induced IL-6 secretion in PBMC (IL-6 ELISA). Format: cell-based. As to conditions: human PBMC, 20 h compound pre-incubation, 24 h stimulation. The method in brief: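 PBMC pre-treated with compounds (top 1 μM, 4-fold dilutions) in RPMI 1640/10% FBS for 20 h at 37 °C, then stimulated with R848 ([…] final) for another 24 h. Supernatant IL-6 by ELISA (OD450, standard curve); IC50 from dose-effect curve fit.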
For orientation: An ELISA detects its analyte on a solid surface through an enzyme-linked reagent.

The compound `Cc1nn(C2CCC(=O)NC2=O)c2cccc(N3CC4CN(C[C@H]5CC[C@H](n6cc7cc(NC(=O)c8cnn9cccnc89)c(N8CCOCC8)cc7n6)CC5)CC4C3)c12` (stereo partly shown) [TM-57] showed an IC50 of 3.43 nM. This lies in the single-digit nanomolar range.
